Measurements as given in the supplement of paper PMC10307832.

compound: CN1CCN(CC1)C2=CC(=C(C=C2)NC3=NC=C4C(=N3)N(C5=CC=CC=C5C(=O)N4C)C)OC [XMD8-85] + CS(=O)(=O)CCNCc1ccc(-c2ccc3ncnc(Nc4ccc(OCc5cccc(F)c5)c(Cl)c4)c3c2)o1 [Lapatinib] (partner 2 µM); experiment: relative viability (nuclei count vs DMSO), 5 days (fraction); higher = more cells survive; details: first compound 0.08 µM
How it was run: (§1)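 Nuclei were stained with Hoechst during a one-step fixation (final 0.05% Triton X-100, 1% formaldehyde, 1 ug/ml Hoechst) carried out 5 days after dosing, then counted on 4× images. The cells, lung cancer lines in 1536-well plates, had been dosed by pin tool the day after seeding with one drug alone or a fixed anchor-drug dose plus five library-drug doses (not always all listed) in √10 steps. Relative viability is the nuclei count in treated wells divided by that in vehicle wells, and each value is the median of duplicate plates.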

| Cell Line | relative viability |
| --- | --- |
| A549 | 1.08 |
| A-427 | 1.05 |
| ABC-1 | 1.32 |
| BEN | 0.86 |
| CAL-12T | 0.626 |
| COR-L23 | 0.896 |
| COR-L 105 | 0.366 |
| Calu-6 | 1.02 |
| EBC-1 | 0.2 |
| EKVX | 0.198 |
| EMC-BAC-2 | 0.914 |
| H3255 | 0.26 |
| HARA | 0.761 |
| HCC-15 | 0.851 |
| HCC-44 | 0.942 |
| HCC-78 | 0.84 |
| HCC-366 | 0.94 |
| HCC-827 | 0.185 |
| HOP-62 | 1.11 |
| IA-LM | 0.847 |
| LC-2-ad | 1.03 |
| LCLC-97TM1 | 0.703 |
| LK-2 | 0.691 |
| NCI-H1299 | 1 |
| NCI-H1395 | 0.9 |
| NCI-H1650 | 0.729 |
| NCI-H1793 | 0.845 |
| NCI-H2170 | 0.277 |

same assay, conditions: first compound 0.253 µM

| Cell Line | relative viability |
| --- | --- |
| 201T | 1.01 |
| A549 | 0.974 |
| A-427 | 0.994 |
| ABC-1 | 1.18 |
| COR-L23 | 1.09 |
| COR-L 105 | 0.341 |
| Calu-6 | 1.09 |
| EBC-1 | 0.21 |
| EKVX | 0.217 |
| EMC-BAC-2 | 0.847 |
| EPLC-272H | 0.824 |
| H3255 | 0.237 |
| HARA | 0.781 |
| HCC-15 | 0.879 |
| HCC-44 | 0.884 |
| HCC-366 | 1.12 |
| HCC-827 | 0.192 |
| HOP-62 | 0.904 |
| IA-LM | 0.59 |
| LC-2-ad | 0.976 |
| LCLC-97TM1 | 0.931 |
| LK-2 | 0.994 |
| LOU-NH91 | 0.736 |
| NCI-H1299 | 0.985 |
| NCI-H1395 | 1.11 |
| NCI-H1650 | 0.819 |
| NCI-H1703 | 1.22 |
| NCI-H1793 | 0.826 |
| NCI-H2170 | 0.302 |

same assay, conditions: first compound 0.8 µM

| Cell Line | relative viability |
| --- | --- |
| 201T | 1.02 |
| A549 | 1.06 |
| A-427 | 1.09 |
| ABC-1 | 0.942 |
| BEN | 0.571 |
| CAL-12T | 0.679 |
| COR-L23 | 1.11 |
| COR-L 105 | 0.407 |
| Calu-6 | 1.11 |
| EBC-1 | 0.174 |
| EKVX | 0.203 |
| EMC-BAC-2 | 0.945 |
| EPLC-272H | 1.02 |
| H3255 | 0.233 |
| HARA | 0.907 |
| HCC-15 | 0.863 |

| Cell Line | relative viability |
| --- | --- |
| HCC-44 | 1.1 |
| HCC-78 | 0.751 |
| HCC-366 | 1.09 |
| HCC-827 | 0.175 |
| HOP-62 | 0.978 |
| IA-LM | 0.611 |
| LC-2-ad | 0.984 |
| LCLC-97TM1 | 0.859 |
| LK-2 | 0.771 |
| LOU-NH91 | 0.76 |
| NCI-H1299 | 0.977 |
| NCI-H1395 | 0.927 |
| NCI-H1650 | 0.92 |
| NCI-H1703 | 1.25 |
| NCI-H1793 | 0.857 |
| NCI-H2170 | 0.253 |

same assay, conditions: first compound 2.53 µM

| Cell Line | relative viability |
| --- | --- |
| 201T | 1 |
| A549 | 1.03 |
| A-427 | 1.1 |
| ABC-1 | 1.21 |
| BEN | 0.487 |
| CAL-12T | 0.678 |
| COR-L23 | 1.08 |
| COR-L 105 | 0.342 |
| Calu-6 | 1.03 |
| EBC-1 | 0.184 |
| EKVX | 0.209 |
| EMC-BAC-2 | 0.944 |
| EPLC-272H | 0.905 |
| H3255 | 0.243 |
| HARA | 0.787 |
| HCC-15 | 0.948 |

| Cell Line | relative viability |
| --- | --- |
| HCC-44 | 1.06 |
| HCC-78 | 0.565 |
| HCC-366 | 0.994 |
| HCC-827 | 0.195 |
| HOP-62 | 1.13 |
| IA-LM | 0.455 |
| LC-2-ad | 1 |
| LCLC-97TM1 | 1.02 |
| LK-2 | 0.552 |
| LOU-NH91 | 0.761 |
| NCI-H1299 | 0.974 |
| NCI-H1395 | 0.95 |
| NCI-H1650 | 0.671 |
| NCI-H1703 | 1.26 |
| NCI-H1793 | 0.781 |
| NCI-H2170 | 0.256 |

same assay, conditions: first compound 8 µM

| Cell Line | relative viability |
| --- | --- |
| 201T | 0.828 |
| A549 | 0.869 |
| A-427 | 0.937 |
| ABC-1 | 1.11 |
| BEN | 0.334 |
| CAL-12T | 0.604 |
| COR-L23 | 0.913 |
| COR-L 105 | 0.348 |
| Calu-6 | 0.899 |
| EBC-1 | 0.172 |
| EKVX | 0.208 |
| EMC-BAC-2 | 0.835 |
| EPLC-272H | 0.566 |
| H3255 | 0.167 |
| HARA | 0.569 |
| HCC-15 | 0.747 |

| Cell Line | relative viability |
| --- | --- |
| HCC-44 | 0.959 |
| HCC-78 | 0.223 |
| HCC-366 | 1.06 |
| HCC-827 | 0.193 |
| HOP-62 | 0.797 |
| IA-LM | 0.16 |
| LC-2-ad | 0.702 |
| LCLC-97TM1 | 1.15 |
| LK-2 | 0.653 |
| LOU-NH91 | 0.57 |
| NCI-H1299 | 0.67 |
| NCI-H1395 | 0.679 |
| NCI-H1650 | 0.281 |
| NCI-H1703 | 0.841 |
| NCI-H1793 | 0.814 |
| NCI-H2170 | 0.249 |

compound: O=C(O)C(Cc1ccccc1[N+](=O)[O-])=NNc1nc(-c2ccc(Cl)c(Cl)c2)cs1 (mixture of isomers) [4EGI-1] + COc1cccc2cc(-c3nc([C@H]4CC[C@H](C(=O)O)CC4)n4ncnc(N)c34)[nH]c12 [OSI-027] (partner 0.5 µM); experiment: as above; details: first compound 0.5 µM
How it was run: as §1

| Cell Line | relative viability |
| --- | --- |
| 201T | 0.791 |
| A-427 | 0.604 |
| ABC-1 | 0.642 |
